Reference: the supplement of paper PMC10307832

Tests used:
Assay in all cases: relative viability (nuclei count vs DMSO), 5 days (fraction); higher = more cells survive
Bortezomib + Tozasertib = compound: CC(C)C[C@H](NC(=O)[C@H](Cc1ccccc1)NC(=O)c1cnccn1)B(O)O [Bortezomib] + Cc1cc(Nc2cc(N3CCN(C)CC3)nc(Sc3ccc(NC(=O)C4CC4)cc3)n2)n[nH]1 [Tozasertib] (partner 0.1 µM)
How it was run: (§1)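 Nuclei were stained with Hoechst during a one-step fixation (final 0.05% Triton X-100, 1% formaldehyde, 1 ug/ml Hoechst) carried out 5 days after dosing, then counted on 4× images. The cells, lung cancer lines in 1536-well plates, had been dosed by pin tool the day after seeding with one drug alone or a fixed anchor-drug dose plus five library-drug doses (not always all listed) in √10 steps. Relative viability is the nuclei count in treated wells divided by that in vehicle wells, and each value is the median of duplicate plates.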

Bortezomib + Pemetrexed = compound: CC(C)C[C@H](NC(=O)[C@H](Cc1ccccc1)NC(=O)c1cnccn1)B(O)O [Bortezomib] + Nc1nc2[nH]cc(CCc3ccc(C(=O)N[C@@H](CCC(=O)O)C(=O)O)cc3)c2c(=O)[nH]1 [Pemetrexed] (partner 0.2 µM)
How it was run: as §1

[1] = compound: CC1=CC(=NN1)NC2=CC(=NC(=N2)/C=C/C3=CC=CC=C3)N4CCN(CC4)C + CC(=O)c1c(C)c2cnc(Nc3ccc(N4CCNCC4)cn3)nc2n(C2CCCC2)c1=O [Palbociclib] (partner 0.5 µM)
How it was run: as §1

Obatoclax + Luminespib = compound: COC1=CC(c2cc3ccccc3[nH]2)=N/C1=C\c1[nH]c(C)cc1C [Obatoclax] + CCNC(=O)c1noc(-c2cc(C(C)C)c(O)cc2O)c1-c1ccc(CN2CCOCC2)cc1 [Luminespib] (partner 0.01 µM)
How it was run: as §1

Cell Line	relative viability (Bortezomib + Tozasertib; first compound 0.0002 µM)	relative viability (Bortezomib + Tozasertib; first compound 0.000632 µM)	relative viability (Bortezomib + Tozasertib; first compound 0.002 µM)	relative viability (Bortezomib + Tozasertib; first compound 0.006325 µM)	relative viability (Bortezomib + Tozasertib; first compound 0.02 µM)	relative viability (Bortezomib + Pemetrexed; first compound 0.0002 µM)	relative viability (Bortezomib + Pemetrexed; first compound 0.000632 µM)	relative viability (Bortezomib + Pemetrexed; first compound 0.002 µM)	relative viability (Bortezomib + Pemetrexed; first compound 0.006325 µM)	relative viability (Bortezomib + Pemetrexed; first compound 0.02 µM)	relative viability ([1]; first compound 0.08 µM)	relative viability ([1]; first compound 0.253 µM)	relative viability ([1]; first compound 0.8 µM)	relative viability ([1]; first compound 2.53 µM)	relative viability ([1]; first compound 8 µM)	relative viability (Obatoclax + Luminespib; first compound 0.01 µM)	relative viability (Obatoclax + Luminespib; first compound 0.03162 µM)	relative viability (Obatoclax + Luminespib; first compound 0.1 µM)	relative viability (Obatoclax + Luminespib; first compound 0.3162 µM)	relative viability (Obatoclax + Luminespib; first compound 1 µM)
NCI-H460	0.386	0.366	0.616	0.304	0.0187	0.0729	0.0627	0.0658	0.0625	0.0303	0.159	0.145	0.149	0.0195	0.0182	0.0359	0.0371	0.0282	0.0268	0.019
NCI-H2342	0.765	0.471	0.511	0.409	0.313	0.801	0.783	0.739	0.752	0.712	0.531	0.517	0.532	0.527	0.492	0.592	0.87	0.777	0.644	0.716
HARA	0.0998	0.0941	0.0961	0.0503	0.061	0.221	0.178	0.228	0.157	0.13	0.296	0.31	0.266	0.174	0.103	0.889	0.827	0.728	0.692	1.05
NCI-H1793	0.316	0.299	0.444	0.252	0.102	0.762	–	0.867	0.616	0.211	0.325	0.374	0.273	0.157	0.144	0.119	0.128	0.187	0.183	0.192
SW 900	0.522	0.544	0.184	0.103	0.14	0.476	0.485	0.224	0.169	0.152	0.514	0.542	0.497	0.284	0.12	0.164	0.153	0.179	0.131	0.148
NCI-H2126	0.815	0.921	0.763	0.488	0.214	0.648	0.695	0.707	0.61	0.536	0.336	0.341	0.32	0.306	0.243	0.857	0.876	0.875	0.806	0.679
HCC-827	0.418	0.447	0.419	0.12	0.0981	0.265	0.254	0.219	0.234	0.247	0.445	0.514	0.505	0.501	0.231	0.676	0.575	0.6	0.706	0.76
BEN	0.496	0.554	0.449	0.511	0.362	0.75	0.806	0.88	0.529	0.373	0.421	0.459	0.511	0.437	0.328	0.507	0.243	–	0.26	0.291
ChaGo-K-1	0.233	0.207	0.248	0.165	0.155	0.265	0.238	0.249	0.267	0.192	0.756	0.952	0.933	0.378	0.17	0.718	0.565	0.487	0.561	0.426
